AC50 data for 83 compounds are collected here from PubChem BioAssay AID743267 (Broad Institute, 2014).

One may read the AC50 as the midpoint of the concentration-response curve, whichever way the signal moves. Read a low AC50 as greater potency.

In this assay the test system is human bronchial epithelial cells, CFTR corrector, plate reader. Put plainly: rescue of ΔF508 CFTR function, airway epithelium – human bronchial epithelial cells, plate reader, cherry-pick, two tests, dose response (AID 743267).
Setting [1] is: measured here: test 1 replicate run.
[2] abbreviates: measured here: test 2 replicate run.

Under setting [1], `COc1cccc(-c2cccc(-c3nc(C(=O)NCC(F)(F)F)cc4c3[C@H](CCO)N([S@@](=O)C(C)(C)C)C4)c2)c1` registered an AC50 of 2.75 µM. In other words, the single-digit micromolar range.
As for `CC(=O)c1cccc(-c2ccnc3c2CC(C(=O)NCc2ccco2)O3)c1` (stereo not drawn), under setting [2], the AC50 came out at 2.01 µM.
On the same count and under the same terms, under `Cn1c(=O)c(NC2CCCCC2)c2c3c(cccc31)C(=O)c1ccccc1-2` stands 8.48 µM; under `Cc1ccc(CNC(=O)c2ccc3c(=O)c(O)c(-c4ccc(C)cc4)[nH]c3c2)cc1`, 4.24 µM.
Still for that read-out and setting: then `Cc1ccc2cc(CN(CC3CCCO3)C(=S)Nc3ccccc3)c(=O)[nH]c2c1C` (stereo not drawn), with 3.16 µM; and `CC(=O)Nc1ccc2cc3ccc(NC(C)=O)cc3nc2c1`, with 18.1 µM; and `CN(C)CCCNc1c2ccccc2nc2ccccc12`, with 0.879 µM.
Turning to `N#CC1c2ccccc2-c2ccccc2N1C(=O)c1ccccc1` (stereo not drawn), the AC50 under setting [2] is 4.85 µM.
With `CC(C)(C)c1ccc(OCC(=O)Nc2ccc3c4c(cccc24)C(=O)NC3=O)cc1`, the AC50 under setting [2] is 18.4 µM.
As for `COc1ccc(OC)c(Nc2nc(-c3sc(NC(=O)C(C)(C)C)nc3C)cs2)c1`, under setting [2], the AC50 was determined as 2.78 µM.
Still for that read-out and setting: under `Cn1cc(C(=O)OCC2CCN(CCNS(C)(=O)=O)CC2)c2ccccc21` stands over 50 µM; under `Nc1ccc(-c2c3ccc(=O)cc-3oc3cc(O)ccc23)cc1C(=O)O`, 7.85 µM; under `COc1ccc(C2=Nn3c(nnc3-c3ccccc3F)SC2)cc1OC1CCOC1` (stereo not drawn), 22.3 µM.
Regarding `O=C(c1ccc(Br)cc1)c1cc([N+](=O)[O-])ccc1N1CCOCC1`, the AC50 under setting [2] was 1.69 µM.
The same measure, in the same setting: under `COc1ccc([C@H]2CC(=O)C=C(c3ccc(OC)cc3OC)C2)cc1` stands 0.681 µM.
`C[C@H](CO)N1C[C@H](C)[C@@H](CN(C)Cc2ccc(Cl)c(Cl)c2)Oc2ccc(NC(=O)Nc3ccc(C(F)(F)F)cc3)cc2CC1=O` registered an AC50 under setting [1] of 16 µM.
The compound `c1ccc2nc(N3CCNCC3)ccc2c1` came in with an AC50 under setting [2] of over 50 µM.
`CC(=O)Nc1sc2c(c1-c1nc3ccccc3s1)CN(C(C)C)CC2` gave a half-maximal activity concentration (AC50) under setting [2] of 1.43 µM.
As for `CCOP(=O)(C#Cc1ccccc1)C(O)c1ccc(Br)cc1` (stereo not drawn), the AC50 under setting [2] is over 50 µM.
`COc1cc(C2CC(=O)N(c3ccc(C)cc3)C(=O)C2)cc(OC)c1OC`: the AC50 under setting [2] was determined as 2.37 µM.
For `CCOC(=O)N1CCN(C(=O)C2CCC(=O)N(CCCN3CCCC3=O)C2)CC1` (stereo not drawn), under setting [2], the AC50 is 10.5 µM. This AC50 lies about 4.4-fold higher than the previous one.
Regarding `CCc1c(C)nc2ncnn2c1NCCc1ccc(OC)cc1`, the AC50 under setting [2] amounted to 34.6 µM.
`C=CCN1C(=O)/C(=C/C=C2/N(CC)c3ccc(S(=O)(=O)N(C)C)cc3N2CC)SC1=S` had an AC50 under setting [2] of 3.35 µM. This AC50 lies about 10-fold lower than the previous one.
`Cc1ccc(Nc2nc(-c3sc(C)nc3C)cs2)cc1` gave an AC50 under setting [2] of 0.812 µM.
`C[C@@H]1O[C@@H](O[C@@H]2C=C3CC[C@@H]4C(CC[C@]5(C)[C@@H](c6ccc(=O)oc6)CC[C@]45O)[C@@]3(C)CC2)[C@H](O)[C@H](O)[C@H]1O` (stereo partly drawn) gave a half-maximal activity concentration (AC50) under setting [2] of 1.42 µM.
Under setting [2], `COc1ccc(Cl)cc1NC(=O)CN(C)CC(=O)Nc1cc(OC)c(OC)c(OC)c1` came in with a concentration at half-maximal activity (AC50) of 8.47 µM. This AC50 lies about 6-fold higher than the previous one.
Under setting [2], `COc1ccc(-c2nc(-c3cccc(C)c3)no2)cc1OC` displayed an AC50 of 9.13 µM.
The compound `CCOC(=O)c1[nH]c(C)c(/C(O)=C2\C(=O)C(=O)N(CCCN3CCOCC3)C2c2cccs2)c1C` (stereo not drawn) came in with an AC50 under setting [2] of 19.4 µM.
Same read-out and setting: under `CC[N+]1(CC)CC2=Cc3ccccc3CC2C1` (stereo not drawn) stands 27.8 µM; under `Cc1ccc(N2C(=O)c3cccc4c([N+](=O)[O-])ccc(c34)C2=O)c2cccnc12`, 18.8 µM; under `O=C1OCC2=C1C(c1ccc3c(c1)OCO3)c1cc3c(cc1O2)OCO3` (stereo not drawn), 2.12 µM.
The compound `Cc1ccc(COc2ccccc2-c2cc(C(=O)N/N=C/c3cccnc3)[nH]n2)cc1` gave a concentration at half-maximal activity (AC50) under setting [2] of over 50 µM.
Same read-out and setting: then `COc1ccc(C2=Nn3c(nnc3-c3ccccc3OC)SC2)cc1OC1CCOC1` (stereo not drawn), with 0.973 µM; and `CCOc1ccc(C(=O)N[C@H](C(=O)Nc2cccc(S(=O)(=O)N3CCCCC3)c2)C(C)C)cc1`, with 46.3 µM.
Consider `CC(=O)Oc1c(C)cc(Cl)cc1C(=O)Nc1ccc([N+](=O)[O-])cc1Cl`, for which the concentration at half-maximal activity (AC50) under setting [2] came out at 1.38 µM.
Turning to `N#C/C(=C(/O)c1ccc(Br)s1)c1nc2ccccc2[nH]1`, the AC50 under setting [2] was 3.88 µM.
For `COc1ccc(-c2ccnc(-c3ccc(O)cc3)n2)cc1`, the AC50 under setting [2] was 1.43 µM.
`COc1ccccc1Cc1c(-c2ccc(Cl)cc2)nc2ccc(Br)cn12`: under setting [2], the AC50 is 8.16 µM.
Take `CC(=O)N1CCc2cc(S(=O)(=O)N3c4ccccc4CC3C)ccc21` (stereo not drawn): the concentration at half-maximal activity (AC50) under setting [2] came to 6.73 µM.
`COc1cc(C(=O)Nc2ccc(C)cc2)c2ccccc2n1` gave an AC50 under setting [2] of 1.26 µM. Compared with the last compound, the AC50 is about 5.3-fold lower.
The compound `COc1ccc2[nH]c(C(=O)N/N=C/c3ccc(O)cc3O)cc2c1` returned an AC50 under setting [2] of 4.83 µM. Compared with the last compound, the AC50 is about 3.8-fold higher.
For the compound `O=c1cc(-c2ccc(O)c(O)c2)oc2cc(O)cc(O)c12`, the AC50 under setting [2] was 29.3 µM.
As for `COc1ccc(-c2ccc3c(c2)[C@H]2[C@H](CCN2S(=O)(=O)c2ccc(OC)cc2)[C@@H](CO)N3C)cc1`, the half-maximal activity concentration (AC50) under setting [1] worked out at 9.59 µM.
The compound `Cc1cccc(N2CCN(S(=O)(=O)c3cc(-c4cc(C)no4)ccc3C)CC2C)c1` (stereo not drawn) had an AC50 under setting [2] of 2.57 µM.
Under setting [1], `COc1ccc(S(=O)(=O)N2CC[C@@H]3[C@@H](CO)N(C)c4ccc(-c5ccc(F)cc5)cc4[C@@H]32)cc1` came in with a concentration at half-maximal activity (AC50) of 13 µM. This counts as double-digit micromolar.
Under setting [2], `COC(=O)COc1cccc2c(=O)n(CC(=O)NCc3ccccc3)ccc12` gave a half-maximal activity concentration (AC50) of 5.25 µM.
In turn, `CC(=O)Oc1ccc(N2C(=O)c3cccc4c([N+](=O)[O-])ccc(c34)C2=O)cc1` returned a concentration at half-maximal activity (AC50) under setting [2] of 20.6 µM.
Take `COc1cc(-c2noc(C)c2C#Cc2ccsc2)cc(OC)c1OC`: under setting [2], the AC50 amounted to 0.537 µM.
For `COC(=O)c1ccc(C(=O)NC2CCCc3c2cnn3-c2cc(F)cc(F)c2)nc1` (stereo not drawn), the AC50 under setting [2] came to 8.13 µM.
For the compound `CC1(S(=O)(=O)O)CC(=O)c2ccccc2C1=O` (stereo not drawn), the AC50 under setting [2] came out at 28.6 µM.
The same measure, in the same setting: then `COc1ccc(O)c(/C=N/NC(=O)c2ccc(N3CCCC3=O)cc2)c1`, with 8.14 µM.
`N#Cc1ccc(-c2ccc3c(c2)[C@H]2[C@H](CCN2S(=O)(=O)c2ccccc2F)[C@@H](CO)N3)cc1`: the AC50 under setting [1] was determined as 6.96 µM.
On to `COc1ccc(-c2cc(NC=O)c3ncc(-c4ccc(OC)c(OC)c4)n3c2)cc1`, for which, under setting [2], the AC50 was found to be 22.3 µM.
Turning to `O=c1c(O)c(-c2cccs2)oc2ccc(Cl)cc12`, the half-maximal activity concentration (AC50) under setting [2] is 6.12 µM.
In the case of `CCN(CC)CCCNc1nc2ccccc2c2nc(-c3ccncc3)nn12`, the half-maximal activity concentration (AC50) under setting [2] is 6.34 µM.
For `COc1ccc(S(=O)(=O)Nc2ccc3c(c2)C(=O)N([C@H](C)CO)C[C@@H](C)[C@@H](CN(C)Cc2ccc(Cl)c(Cl)c2)O3)cc1`, the AC50 under setting [1] came to 4.82 µM.
In turn, `NC(=S)NN=Cc1nccc2c(N)cccc12` registered an AC50 under setting [2] of 3.21 µM.
As to `CCOC(=O)C1CCCN(c2ccc([N+](=O)[O-])c3nonc23)C1` (stereo not drawn), under setting [2], the half-maximal activity concentration (AC50) amounted to 20.7 µM.
Compound `COc1ccc(CNS(=O)(=O)c2cc(-c3cc(C)no3)ccc2C(C)C)cc1` gave a concentration at half-maximal activity (AC50) under setting [2] of 2.16 µM.
With `NS(=O)(=O)c1ccc(Cl)c(S(N)(=O)=O)c1`, the AC50 under setting [2] was 1.16 µM.
The same measure, in the same setting: then `COc1cc2c(cc1OC)C(c1cccs1)N(C(=O)c1cccnc1)CC2` (stereo not drawn), with 4.9 µM; and `O=C(O)c1ccccc1-c1c2cc(I)c(=O)c(I)c-2oc2c(I)c(O)c(I)cc12`, with 16.7 µM; and `COc1ccc(Nc2nc(-c3sc(C)nc3C)cs2)c(OC)c1`, with 12.3 µM.
As to `Cc1cc(C(=O)N/N=C/c2ccc([N+](=O)[O-])cc2)c2ccccc2n1`, under setting [2], the half-maximal activity concentration (AC50) worked out at 3.96 µM.
Regarding `C#C[C@]1(O)CC[C@H]2[C@@H]3CCc4cc(OC5CCCC5)ccc4[C@H]3CC[C@@]21C`, the AC50 under setting [2] turned out to be 3.31 µM.
Turning to `Cc1occc1C(=O)N/N=C/c1c(O)ccc2ccccc12`, the AC50 under setting [2] was found to be 1.84 µM.
Compound `COc1ccc(C(=O)NCC(c2ccco2)N2CCc3ccccc32)cc1` (stereo not drawn) showed an AC50 under setting [2] of 2.69 µM.
On the same count and under the same terms, under `O=C1c2cccc(NCCCNCCO)c2C(=O)c2cccc(NCCCNCCO)c21` stands 16 µM; under `CC(=O)O[C@H]1C(=O)[C@]2(C)[C@H]([C@H](OC(=O)c3ccccc3)[C@]3(O)C[C@H](OC(=O)[C@H](O)[C@@H](NC(=O)c4ccccc4)c4ccccc4)C(C)=C1C3(C)C)[C@]1(OC(C)=O)CO[C@@H]1C[C@@H]2O`, 0.339 µM; under `COc1ccc(S(=O)(=O)Nc2cc3c(cc2C(C)=O)OCO3)cc1`, 13.9 µM.
With `CC(C)(C)C1COc2ccccc2N1C(=O)c1cccc(Cl)c1` (stereo not drawn), the AC50 under setting [2] amounted to 1.63 µM.
On to `O=C1CN(S(=O)(=O)Cc2ccccc2)C[C@@H]2[C@@H](c3ccc(C#Cc4cccc(F)c4)cc3)[C@H](CO)N12`, for which, under setting [1], the AC50 turned out to be 16 µM. That is a double-digit micromolar value.
For `O=C(NC(=S)Nc1ccc(-c2ccccc2)cc1)c1ccccc1`, the concentration at half-maximal activity (AC50) under setting [2] is over 50 µM.
Still for that read-out and setting: under `Cc1cc(/C=N/n2c(COc3ccccc3C)nc3ccccc3c2=O)c(O)c([N+](=O)[O-])c1` stands 5.53 µM; under `C/C(=N\NC(=O)c1cc(-c2cccs2)nc2ccccc12)c1ccccn1`, 2.45 µM; under `CCN(C(=O)CSc1nnc(C)n1-c1ccc(C)cc1)c1c(N)n(Cc2ccccc2)c(=O)[nH]c1=O`, over 50 µM.
Same read-out and setting: under `O=S1(=O)CCN(C(CO)c2ccccc2)CC1` (stereo not drawn) stands 43.3 µM.
In turn, `CCSc1nnc(N2C(=O)C(O)=C(C(=O)c3ccco3)C2c2cccc(OC)c2)s1` (stereo not drawn) came in with an AC50 under setting [2] of over 50 µM.
For `COc1ccc2c(c1)C(O)C(CO)C(C(=O)O)C2` (stereo not drawn), under setting [2], the AC50 was found to be 9.28 µM.
Compound `Cc1cccc(NS(=O)(=O)c2ccc(-c3cnc(C4CC4)o3)cc2)c1` registered an AC50 under setting [2] of 1.59 µM.
In the case of `COc1cccc(C(=O)Nc2sc3c(c2C#N)CCN(C(C)=O)C3)c1`, the AC50 under setting [2] is 1.36 µM. The AC50 values of the last two compounds are within 1.5-fold of each other.
Consider `COc1ccc(C(=O)c2cc(OC)c(OC)c(OC)c2)cc1OC`, for which the concentration at half-maximal activity (AC50) under setting [2] was found to be 2.72 µM.
`O=C(N/N=C/c1ccccc1OC(F)F)c1cc(-c2ccncc2)nc2ccccc12`: the half-maximal activity concentration (AC50) under setting [2] worked out at 0.798 µM. This AC50 lies about 3.4-fold lower than the previous one.
